Source: PMC12392461, “Beyond Estrogenicity: A Comparative Assessment of Bisphenol A and Its Alternatives in In Vitro Assays Questions Safety of Replacements” (Environmental Science & Technology, 2025)
Like-named read-outs stand apart in the source and are kept apart here.

Tests used:
ERα [1] = experiment: Literature ERα reporter gene assays (comparison); assay type: cell-based; settings: for EC10, approx.: in M (unit assumed)
Procedure: S5.4: Comparison with literature data for ERα reporter gene assays
To improve data comparability with our own results we converted reported EC₅₀ to EC₁₀ by dividing by 9, which is the ratio for log-logistic concentration-response curves with a hillslope of 1 (Figure S9a). Additionally, REPBPA values were calculated to enable a more consistent evaluation. Methodological differences between studies must be considered, as Reiniger et al.24 used the YES assay, while Goksøyr et al.25 applied ERα from fish (Figure S9b).
Cyan symbols highlight the ER-UAS-bla GripTite (this study and Tox21GenBLA).
(1 picture or pasted object on this page, not shown here)

[2] = test system: HEK293H, HEK293T, H4IIe, MCF7 and SH-SY5Y cells; settings: for cytotoxicity,median REPBPA,IC10: median IC10 relative to BPA; for IC10,Median (M): median cytotoxicity of all cell lines; for IC10, median: median cytotoxicity over all cell lines
Procedure: Cell culture conditions and bioassay protocols including response detection are provided in Text S2.1–2.4 and Table S3. − Cell viability was determined from cell confluency using an IncuCyte S3 Live-Cell Analysis System (Sartorius AG, Essen, Germany) before and after exposure, except for SH-SY5Y cells (live–dead staining with Nuclear Green LcS1 and propidium iodide, Abcam, UK). For metabolic activation experiments, cell viability was assessed using the ToxBLAzer DualScreen Kit (Thermo Fisher Scientific) to capture the remaining toxicity in ERα-UAS-bla GripTite after treatment with the aCYP catalyst (details in Text S2.4).
For ARE, the concentration that triggered an induction ratio of 1.5 (ECIR1.5) was used as the benchmark value, as detailed in Text S2.5. IC10 values also served as a threshold for data analysis in all assays; only concentrations below IC10 were considered when deriving EC10 or ECIR1.5.
TR indicates whether the cytotoxicity is triggered by specific toxicity mechanisms (TR ≥ 10) or not (0.1< TR< 10). 3 TR=IC10,baseline/IC10 We measured the cytotoxicity of BPA and its alternatives in HEK293H (PPARγ), HEK293T (ERα), H4IIe (AhR CALUX), MCF7 (ARE/MMP), and differentiated SH-SY5Y cells (Table S6). […]
medium, supplemented with 2% B-27 Supplement and 2 mM GlutaMAX Supplement. SH - SY5Y cells were differentiated with 10 µM all-trans retinoic acid prior to the assay.
S2.2: Cell Seeding and Incubation. For all bioassays, cell suspensions in the respective assay medium were dispensed into each well of 384-well plates using a MultiFlo Dispenser (Biotek, (now Agilent), Winooski, VT, U.S.). After seeding, the plates were incubated at 37° C and 5% CO₂ for […]. The final cell densities and plate types were as follows: Black poly-D-lysine […]
6500 cells/well, ERα: 5000 cells/well. White 384-well plates with a clear bottom (Product No.
NYC, U.S.) for AhR: 3250 cells/well. Black Collagen I coated plates were used (Product No.
S2.3: Chemical Dosing and Assay Analysis Procedures. The dosing procedure and high-throughput assay workflow have been described in detail before. 9 The dosing concentrations […]
Stock solutions were then either added directly to the respective cell culture medium or evaporated under nitrogen, followed by replenishment with fresh medium. The final solvent content in each well was kept below 1% for methanol, 0% for acetonitrile.
Dosing plates were prepared as 11 -step serial dilutions using a Hamilton Microlab Star robotic system (Hamilton, Bonaduz, Switzerland), and chemicals were dosed in duplicates by transferring 10 μL twice from the dosing plates to the cell plates . After quantifying cell confluency as described in S2. 4., the exposed cells were incubated at 37° C and 5% CO₂ for an additional 24 h. All chemicals were tested in all assays with at least three independent […]
S2.4: Cell Viability Measurement s and bioanalytical protocols . The confluency as a measure of cell viability was determined with an IncuCyte S3 Live -Cell Analysis System (Sartorius AG, Essen, Germany). With this method the confluency of cells in a microscopy image are normalized to control wells without cells and compared before and after 24 hours of exposure.
This method has been described previously 13. Cell viability of SH-SY5Y cells was measured […]
propidium iodide (PI, Abcam, Cambridge, U.K.).14 Nuclear Green LCS1 is a membrane-permeable dye that stains the nuclei of all cells, whereas PI only enters cells with compromised membrane integrity (non-viable cells). After staining, live cells show green nuclei without red fluorescence, while dead cells display both green and red nuclear fluorescence due to PI […]
intercalation. Cell viability was calculated as the proportion of green-only nuclei relative to the […]
For experiments with the preceding aCYP activation, ERα cell viability was additionally calculated from the readout of the ToxBLAzer reagent. The ToxBLAzer assay was conducted following the manufacturer's instructions (Thermo Fisher, Waltham, MA, U.S.).13 Fluorescence

Tox21 assays = experiment: Re-evaluated Tox21 data (Adamovsky et al.), REPBPA and SRbaseline; settings: for SRbaseline: Specificity Ratio;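 as to all read-outs here: published Tox21 results reanalysed with a revised model predicting baseline toxicity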
Source text: We also reanalyzed the Tox21 data of Adamovsky et al. with the updated baseline toxicity prediction model (Table S2).

ERα [3] = settings: cited from earlier work
[4] = Octanol-water partition constant (log Kow) measurement, Sirius T3 potentiometric log P; assay type: physicochemical; settings: experimental, this study
Procedure: Physicochemical properties provide input parameters for the baseline toxicity model. Acidity constants (pK a) and octanol–water partition constants of the neutral species (K ow) were measured with a Sirius T instrument from Pion Inc. (Sussex, UK) (Text S1.2 and Table S1). A detailed description of the pK a and K ow measurements can be found in literature. , […]
S1.2: pKa and log Kow measurements […]
titrator (Pion Inc., Sussex, U.K.). […]
UV absorbance. For log Kow measurement, approximately 1 mg of test chemical was added to a sample vial and the measurement was done automatically via the potentiometric log P protocol. Briefly, each compound is titrated thrice in an immiscible biphasic system of octanol and phosphate buffer solution and pH is continuously recorded. The shift in p Ka -values was used to estimate the log Kow values.2, 3 Data processing was performed with Sirius T3 Refine software (version 2.0.0.0.), and the final p Ka and log Kow values were calculated as the average of three titrations. To ensure reproducibility, measurements were conducted on at least two

PPARγ = test system: PPARγ; set-up: method as in Crosthwait et al. 2025; Sun et al. 2025; settings: ref Crosthwait et al. 2025; Sun et al. 2025; cited from earlier work
[5] = Atlantic cod estrogen receptor, approximated from literature EC50, ref Goksøyr et al 2024
[6] = Atlantic cod estrogen receptor, ref Goksøyr et al 2024
[7] = approximated from literature EC50, ref Pelch et al 2019
[8] = approximated from literature EC50, ref Reiniger et Oehlmann 2024
[9] = approximated from literature values, ref Kojima et al 2019
[10] = relative estrogenic potency vs BPA, ref Kojima et al 2019
[11] = relative estrogenic potency vs BPA, ref Pelch et al 2019
[12] = relative estrogenic potency vs BPA, ref Reiniger et Oehlmann 2024
[13] = Tox21Luc, ref Adamovsky et al. 2024
[14] = estrogen receptor from Atlantic cod (Gadus morhua), ref Goksøyr et al 2024

SMILES | EC10, approx. (ERα [1]; [8]) | EC10, approx. (ERα [1]; [9]) | REPBPA (ERα [1]; [10]) | cytotoxicity,median REPBPA,IC10 [2] | IC10,Median (M) [2] | IC10, median [2] [µM] | EC50 (ERα [3]; ref Kojima et al 2019) [µM] | Efficacy % (ERα [3]; ref Pelch et al 2019) [%] | Efficacy % (ERα [3]; ref Reiniger et Oehlmann 2024) [%] | log Kow used [4] | PPARγ transactivation reported in the literature (PPARγ) | other results
Oc1ccc(Cc2ccc(O)cc2)cc1 [BPF, Bis(4-hydroxyphenyl)methane] | ~2.82E-07 | ~5.50E-08 | 6.64E-01 | 0.17 | 4.09 × 10^–4 M | 409 | 0.32 | 63.10 | 1.05E+02 | 2.71 | – | EC10, approx. (ERα [1]; [5]): ~4.22E-07; REPBPA (ERα [1]; [6]): 5.00E-01; EC10, approx. (ERα [1]; [7]): ~1.78E-07; REPBPA (ERα [1]; [11]): 7.50E-01; REPBPA (ERα [1]; [12]): 8.90E-01; REPBPA (Tox21 assays; ATG_PPARg_TRANS_up, Relative Effect Potency): 0.40; SRbaseline (Tox21 assays; ATG_PPARg_TRANS_up): 41.61; SRbaseline (Tox21 assays; TOX21_PPARg_BLA_antagonist_ratio): 17.20; REPBPA (Tox21 assays; [13]): 4.84E-01; EC50 (ERα [3]; [14]): 3.8 µM; EC50 (ERα [3]; ref Pelch et al 2019): 1.6 µM; EC50 (ERα [3]; ref Reiniger et Oehlmann 2024): 2.54 µM
Cc1ccc(S(=O)(=O)NC(=O)Nc2ccc(Cc3ccc(NC(=O)NS(=O)(=O)c4ccc(C)cc4)cc3)cc2)cc1 [BTUM, 4,4'-Bis(p-tolylsulfonylureido)diphenylmethane] | – | – | – | 2.26 | 3.10 × 10^–5 M | 31 | – | – | – | – | weaker effects | –
O=S(=O)(c1ccc(O)cc1)c1ccc(O)cc1 [BPS, 4,4'-Sulfonyldiphenol] | ~7.13E-09 | ~8.50E-07 | 4.29E-02 | – | 5.61 × 10^–4 M | 561 | 5.4 | 61.60 | 7.90E+00 | 1.97 | – | EC10, approx. (ERα [1]; [5]): ~9.26E-06; REPBPA (ERα [1]; [6]): 2.28E-02; EC10, approx. (ERα [1]; [7]): ~1.44E-07; REPBPA (ERα [1]; [11]): 9.23E-01; REPBPA (ERα [1]; [12]): 3.52E+01; SRbaseline (Tox21 assays; ATG_PPARg_TRANS_up): 2973; REPBPA (Tox21 assays; ATG_chAR_XSP2_up, Relative Effect Potency): 1.00; SRbaseline (Tox21 assays; ATG_chAR_XSP2_up): 645.8; SRbaseline (Tox21 assays; ATG_hPPARg_XSP2_up): 3669; REPBPA (Tox21 assays; TOX21_AR_LUC_MDAKB2_Antagonist_0,5nM_R1881, Relative Effect Potency): 0.0653; SRbaseline (Tox21 assays; TOX21_AR_LUC_MDAKB2_Antagonist_0,5nM_R1881): 127.8; REPBPA (Tox21 assays; Tox21BLA, ref Adamovsky et al. 2024): 1.59E-01; REPBPA (Tox21 assays; [13]): 1.68E-02; EC50 (ERα [3]; [14]): 83.3 µM; EC50 (ERα [3]; ref Pelch et al 2019): 1.3 µM; REPBPA,ERα reported in the literature (ERα [3]; ref Text S5.4, Tables S2 and S7): 0.02–1
Cc1ccc(S(=O)(=O)NC(=O)Nc2cccc(OS(=O)(=O)c3ccc(C)cc3)c2)cc1 [Pergafast, N-(p-toluenesulfonyl)-N'-(3-(p-toluenesulfonyloxy)phenyl)urea] | – | – | – | 3.67 | 1.91 × 10^–5 M | 19.1 | – | – | – | 4.11 | weaker effects | –
CC(C)Oc1ccc(S(=O)(=O)c2ccc(O)cc2)cc1 [D8, 4-((4-Isopropoxyphenyl)sulfonyl)phenol] | – | – | – | 0.21 | – | – | – | 10.30 | – | – | weaker effects | –
O=S(=O)(c1ccc(O)cc1)c1ccccc1O [2,4-BPS, 2,4'-Dihydroxydiphenyl sulfone] | – | – | – | – | – | – | – | – | – | 1.90 | No agonism was detected | –
C=CCOc1ccc(S(=O)(=O)c2ccc(O)cc2)cc1 [BPS-MAE, 4-[[4-(Allyloxy)phenyl]sulfonyl]phenol] | – | – | – | 0.37 | 1.90 × 10^–4 M | 190 | – | 10.30 | – | – | weaker effects | –
CC(c1ccccc1)(c1ccc(O)cc1)c1ccc(O)cc1 [BPAP, 4,4'-(1-Phenylethylidene)bisphenol] | ~1.04E-07 | ~1.45E-07 | 2.52E-01 | 2.12 | 3.31 × 10^–5 M | 33.1 | 1.9 | 45.40 | 1.06E+02 | 5.06 | – | REPBPA (Tox21 assays; ATG_NRF2_ARE_CIS_up, Relative Effect Potency): 3.88; SRbaseline (Tox21 assays; ATG_NRF2_ARE_CIS_up): 15.59; SRbaseline (Tox21 assays; TOX21_CAR_Antagonist): 27.45; EC50 (ERα [3]; ref Reiniger et Oehlmann 2024): 0.932 µM
